{
  "source": "patent US20190021988A1",
  "about": "“ENHANCED TRANSDERMAL DELIVERY OF ACTIVE AGENTS” (priority 2016, published 2019)",
  "origin": "cited, not measured here",
  "tested_on": "desmosome-induced tight junctions between corneocytes",
  "data": [
    {"substance": "TD-1: skin penetrating peptide with the amino acid sequence ACSSSPSKHCG, disclosed in WO2007/035474", "values": [
      {"measurement": "time until cell gaps are restored after treatment", "setting": "after treatment", "value": 1, "unit": "h"},
      {"measurement": "space between cells after topical application", "setting": "change from about 30 nm, in 30 minutes from topical application", "value": "about 466 nm"}
    ]}
  ]
}
